Data set [1] deals with Mus musculus. Description: Inhibition of homologous recombinant repair in human SW1990 cells xenografted in BALB/c mouse assessed as increase in gammaH2AX expression at 45 mg/kg, ip after 4 days by immunohistochemical analysis. It is filed as functional, organism-based. The conditions noted are these: time 4.0 day. Background: A xenograft is tissue or cells of one species grown in another, often human tumour cells in immunodeficient mice.

For another data set, the system named is CFPAC-1. Description: Antiproliferative activity against human CFPAC-1 cells assessed as reduction in cell viability after 4 days by MTT assay. It is filed as functional, cell-based. The conditions noted are these: CFPAC-1, 96 h, read-out: IC50.
In the next data set the test system is CAPAN-1. The data set is described as follows: Antiproliferative activity against human CAPAN-1 cells assessed as reduction in cell viability after 4 days by MTT assay. In kind it is functional, cell-based. The conditions noted are these: CAPAN-1, 96 h. Background: Tetrazolium dyes change colour on reduction, which living cells bring about.
Data set [2] relates to SW1990. The data set is described as follows: Antiproliferative activity against human SW1990 cells assessed as reduction in cell viability after 4 days by MTT assay. It is filed as functional, cell-based. The conditions noted are these: SW1990, 96 h.
Data set [3] addresses T1, Bromodomain-containing protein 4 (Homo sapiens, UniProt O60885). Description: Inhibition of recombinant BRD4 (unknown origin) incubated for 120 mins by TR-FRET assay. Background: In TR-FRET formats the signal depends on donor and acceptor labels being close together.
Data set [4] has as its target Serine/threonine-protein kinase PLK1 (Homo sapiens, UniProt P53350). Description: Inhibition of recombinant PLK1 (unknown origin) […] measured after 40 mins by ADP-glo luminescence kinase assay.
The next data set relates to MDA-MB-231. Description: Antiproliferative activity against human MDA-MB-231 cells assessed as reduction in cell viability after 7 days. In kind it is functional, cell-based. The conditions noted are these: MDA-MB-231, 168 h.
For data set [5], the system named is Mus musculus. The data set is described as follows: Inhibition of homologous recombinant repair in human SW1990 cells xenografted in BALB/c mouse assessed as reduction in BRCA1 expression at 45 mg/kg, ip after 4 days by immunohistochemical analysis. The conditions noted are these: time 4.0 day. In kind it is functional, organism-based.
Data set [6] relates to Mus musculus. Description: Inhibition of homologous recombinant repair in human SW1990 cells xenografted in BALB/c mouse assessed as reduction in olaparib-induced Rad51 expression at 15 mg/kg, ip after 4 days by immunohistochemical analysis. In kind it is functional, organism-based. The conditions noted are these: time 4.0 day.
For data set [7], the target named is T1, Bromodomain-containing protein 4. Description: Inhibition of recombinant BRD4 BD1 (unknown origin) incubated for 120 mins by TR-FRET assay.
Data set [8] deals with Histone acetyltransferase p300 (Homo sapiens, UniProt Q09472). Description: Inhibition of P300 (unknown orign) using acetyl-CoA as substrate preincubated for 30 mins followed by substrate addition measured after 1 hr by microplate reader analysis.
Data set [9] addresses Poly [ADP-ribose] polymerase 1 (Homo sapiens, UniProt P09874). The data set is described as follows: Inhibition of PARP1 expression in human SW1990 cells at 1 uM after 4 days by Q-PCR analysis. The conditions noted are these: time 4.0 day. In kind it is cell-based.
Data set [10] concerns Mus musculus. The data set is described as follows: Toxicity in BALB/c mouse xenografted with human SW1990 cells assessed as liver damage at 45 mg/kg, ip administered for 28 consecutive days by H and E staining based […] microscopic analysis. It is filed as organism-based. Conditions: in vivo, 672 h, time 28 day.
The subject of data set [11] is SW1990. The data set is described as follows: Antitumor activity against human SW1990 cells xenografted in BALB/c mouse assessed as inhibition of Ki67 expression at 45 mg/kg, ip administered for 28 consecutive days by immunohistochemical analysis. In kind it is functional, organism-based. The conditions noted are these: time 28.0 day.
Data set [12] has as its system Mus musculus. Description: In vivo inhibition of PARP1 expression in human […] cells xenografted in BALB/c mouse at 45 mg/kg, ip administered for 28 consecutive days by immunohistochemical analysis. In kind it is functional, organism-based. The conditions noted are these: time 28.0 day.
Data set [13] concerns SW1990. The data set is described as follows: Induction of apoptosis in human SW1990 cells assessed as early apoptotic cells at 1 uM after 4 days by Annexin V-FITC and propidium iodide staining based flow cytometry (reference value: […]%). It is filed as functional. The conditions noted are these: time 4 day.
The subject of data set [14] is SW1990. Description: Induction of apoptosis in human SW1990 cells assessed as early apoptotic cells at 2 uM after 4 days by Annexin V-FITC and propidium iodide staining based flow cytometry (reference value: […]%). In kind it is functional. Conditions: time 4 day.
The test system of data set [15] is SW1990. Description: Induction of apoptosis in human SW1990 cells assessed as necrotic cells at 2 uM after 4 days by Annexin V-FITC and propidium iodide staining based flow cytometry (reference value: 1.89%). It is filed as functional. Conditions: time 4 day.
In data set [16] the test system is Mus musculus. Description: Effect on cell cycle progression in human SW1990 cells xenografted in BALB/c mouse assessed as reduction in CDK6 expression at 45 mg/kg, ip after 4 days by Western blot analysis. Conditions: time 4.0 day. In kind it is functional, organism-based.
Data set [17] concerns SW1990. The data set is described as follows: Effect on cell cycle progression in human SW1990 cells assessed as reduction in CDK6 expression at 1 to 2 uM after 4 days by Western blot analysis. The conditions noted are these: dose 1-2 µM, time 4.0 day. It is filed as functional, cell-based.
For data set [18], the system named is SW1990. Description: Effect on cell cycle progression in human SW1990 cells assessed as reduction in E2F2 expression at 1 to 2 uM after 4 days by Western blot analysis. It is filed as functional, cell-based. The conditions noted are these: dose 1-2 µM, time 4.0 day.
The subject of data set [19] is SW1990. The data set is described as follows: Induction of autophagy in human SW1990 cells assessed as increase in pULK1 expression at 1 to 2 uM incubated for 4 days by immunofluorescence assay. In kind it is functional, cell-based. The conditions noted are these: dose 1-2 µM, time 4.0 day.
For data set [20], the system named is Mus musculus. The data set is described as follows: Toxicity in BALB/c mouse xenografted with human SW1990 cells assessed as kidney damage at 15 mg/kg, ip administered for 28 consecutive days by H and E staining based […] microscopic analysis. It is filed as organism-based. Conditions: in vivo, 672 h, time 28 day.
The test system of data set [21] is Mus musculus. The data set is described as follows: Toxicity in BALB/c mouse xenografted with human SW1990 cells assessed as kidney damage at 15 mg/kg, ip administered for 28 consecutive days in presence of 45 mg/kg Olaparib. Conditions: in vivo, 672 h, time 28 day. It is filed as organism-based.
The subject of data set [22] is Mus musculus. Description: Toxicity in BALB/c mouse xenografted with human SW1990 cells assessed as lung damage at 15 mg/kg, ip administered for 28 consecutive days in presence of 45 mg/kg Olaparib. The conditions noted are these: in vivo, 672 h, time 28 day. It is filed as organism-based.
For data set [23], the system named is Mus musculus. The data set is described as follows: Toxicity in BALB/c mouse xenografted with human SW1990 cells assessed as liver damage at 15 mg/kg, ip administered for 28 consecutive days in presence of 45 mg/kg Olaparib. In kind it is organism-based. Conditions: in vivo, 672 h, time 28 day.
Data set [24] relates to SW1990. The data set is described as follows: Induction of apoptosis in human SW1990 cells assessed as late apoptotic cells at 4 uM after 4 days by Annexin V-FITC and propidium iodide staining based flow cytometry (reference value: 6.22%). In kind it is functional. The conditions noted are these: time 4 day.
Data set [25] relates to SW1990. Description: Induction of cell cycle arrest in human SW1990 cells assessed as accumulation of cells at S phase at 4 uM incubated for 4 days by propidium iodide staining based flow cytometry (reference value: 29.32%). In kind it is functional. Conditions: time 4 day.
Data set [26] has as its system SW1990. Description: Effect on cell cycle progression in human SW1990 cells assessed as reduction in Olaparib-induced CCND1 expression at 1 uM after 4 days in presence of Olaparib by Q-PCR analysis. Conditions: time 4.0 day. In kind it is functional, cell-based.
The subject of data set [27] is SW1990. Description: Induction of DNA damage in human SW1990 cells assessed as increase in gammaH2AX at 4 uM incubated for 4 days by immunofluorescence assay. The conditions noted are these: time 4.0 day. It is filed as functional, cell-based.
For data set [28], the system named is SW1990. Description: Inhibition of homologous recombinant repair in human SW1990 cells assessed as reduction in Olaparib-induced FOXM1 expression at 1 uM after 4 days in presence of Olaparib by Western blot analysis. The conditions noted are these: time 4.0 day. In kind it is functional, cell-based.
Data set [29] concerns SW1990. Description: Inhibition of homologous recombinant repair in human SW1990 cells assessed as reduction in BRCA1 expression at 4 uM after 4 days by Western blot analysis. It is filed as functional, cell-based. The conditions noted are these: time 4.0 day.
The test system of data set [30] is SW1990. The data set is described as follows: Inhibition of homologous recombinant repair in human SW1990 cells assessed as reduction in Rad51 expression at 4 uM after 4 days by Q-PCR analysis. In kind it is functional, cell-based. The conditions noted are these: time 4.0 day.
Data set [31] has as its system SW1990. Description: Inhibition of homologous recombinant repair in human SW1990 cells assessed as reduction in Rad51 expression at 4 uM after 4 days by Western blot analysis. It is filed as functional, cell-based. The conditions noted are these: time 4.0 day.

As usually defined, the IC50 is the concentration at which inhibition is half-maximal.

The source made the active and inactive calls. No cut-off for these calls is given here.

Chain of Histone acetyltransferase p300 (Q09472 whole entry): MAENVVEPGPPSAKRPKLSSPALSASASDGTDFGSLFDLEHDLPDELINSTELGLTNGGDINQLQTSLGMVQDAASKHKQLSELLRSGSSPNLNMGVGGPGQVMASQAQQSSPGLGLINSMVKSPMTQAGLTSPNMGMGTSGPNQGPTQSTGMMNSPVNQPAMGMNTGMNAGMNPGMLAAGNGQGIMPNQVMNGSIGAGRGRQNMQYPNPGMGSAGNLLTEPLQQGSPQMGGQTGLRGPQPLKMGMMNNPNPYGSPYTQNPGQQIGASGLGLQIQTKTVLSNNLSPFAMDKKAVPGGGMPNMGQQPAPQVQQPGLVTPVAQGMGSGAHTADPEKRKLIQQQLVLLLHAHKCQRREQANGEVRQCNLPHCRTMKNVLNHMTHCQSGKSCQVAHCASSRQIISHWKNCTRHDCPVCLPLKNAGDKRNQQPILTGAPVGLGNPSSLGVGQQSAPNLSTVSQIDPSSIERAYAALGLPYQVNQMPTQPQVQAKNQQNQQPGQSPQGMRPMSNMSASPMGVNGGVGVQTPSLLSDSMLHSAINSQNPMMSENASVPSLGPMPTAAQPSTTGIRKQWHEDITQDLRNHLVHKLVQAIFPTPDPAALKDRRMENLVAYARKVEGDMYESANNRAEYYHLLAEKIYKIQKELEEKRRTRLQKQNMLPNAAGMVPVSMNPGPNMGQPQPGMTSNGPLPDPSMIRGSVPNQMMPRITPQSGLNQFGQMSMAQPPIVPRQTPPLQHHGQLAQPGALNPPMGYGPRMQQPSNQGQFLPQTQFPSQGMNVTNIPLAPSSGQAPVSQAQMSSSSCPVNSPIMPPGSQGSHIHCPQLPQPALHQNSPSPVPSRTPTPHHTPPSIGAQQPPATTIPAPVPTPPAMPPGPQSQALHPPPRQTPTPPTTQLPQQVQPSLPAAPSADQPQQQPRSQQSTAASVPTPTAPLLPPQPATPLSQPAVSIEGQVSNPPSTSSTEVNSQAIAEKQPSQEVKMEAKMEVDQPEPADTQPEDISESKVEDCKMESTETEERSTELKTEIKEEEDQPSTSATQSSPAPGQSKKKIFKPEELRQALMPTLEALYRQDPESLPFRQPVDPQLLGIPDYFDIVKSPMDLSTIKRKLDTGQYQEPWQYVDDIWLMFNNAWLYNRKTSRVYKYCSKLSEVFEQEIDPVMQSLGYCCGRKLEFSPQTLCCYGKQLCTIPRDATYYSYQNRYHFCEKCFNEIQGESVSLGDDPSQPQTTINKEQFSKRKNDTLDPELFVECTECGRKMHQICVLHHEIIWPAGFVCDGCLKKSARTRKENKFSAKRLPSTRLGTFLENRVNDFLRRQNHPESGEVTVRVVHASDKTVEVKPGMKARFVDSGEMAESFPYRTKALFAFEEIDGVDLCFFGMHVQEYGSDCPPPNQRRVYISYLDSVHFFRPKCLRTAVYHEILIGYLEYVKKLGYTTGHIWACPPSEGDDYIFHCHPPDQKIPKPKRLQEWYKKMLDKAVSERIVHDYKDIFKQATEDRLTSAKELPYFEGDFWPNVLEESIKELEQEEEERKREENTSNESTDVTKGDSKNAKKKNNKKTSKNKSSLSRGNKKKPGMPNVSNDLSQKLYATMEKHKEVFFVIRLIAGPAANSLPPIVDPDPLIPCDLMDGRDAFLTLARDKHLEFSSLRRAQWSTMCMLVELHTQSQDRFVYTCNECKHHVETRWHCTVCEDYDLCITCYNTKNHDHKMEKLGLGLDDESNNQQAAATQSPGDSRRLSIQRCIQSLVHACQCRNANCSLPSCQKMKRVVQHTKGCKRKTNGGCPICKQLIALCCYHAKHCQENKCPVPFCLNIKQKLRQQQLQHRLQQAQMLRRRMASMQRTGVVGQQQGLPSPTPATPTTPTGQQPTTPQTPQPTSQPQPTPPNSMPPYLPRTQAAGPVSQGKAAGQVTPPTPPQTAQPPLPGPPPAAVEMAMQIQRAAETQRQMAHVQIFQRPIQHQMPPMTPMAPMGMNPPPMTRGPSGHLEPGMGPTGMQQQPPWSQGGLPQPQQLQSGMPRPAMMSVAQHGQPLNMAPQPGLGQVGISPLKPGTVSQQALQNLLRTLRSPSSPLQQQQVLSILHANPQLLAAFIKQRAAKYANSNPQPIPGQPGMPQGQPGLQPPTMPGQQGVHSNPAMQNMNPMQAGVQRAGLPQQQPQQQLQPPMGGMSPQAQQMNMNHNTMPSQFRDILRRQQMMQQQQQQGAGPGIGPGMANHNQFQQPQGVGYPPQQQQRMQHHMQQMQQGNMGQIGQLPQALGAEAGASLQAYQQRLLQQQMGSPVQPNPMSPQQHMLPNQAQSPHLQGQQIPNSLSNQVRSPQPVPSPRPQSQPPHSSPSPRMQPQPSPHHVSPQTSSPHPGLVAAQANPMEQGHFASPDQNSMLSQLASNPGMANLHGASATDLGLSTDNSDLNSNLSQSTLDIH
Chain of Poly [ADP-ribose] polymerase 1 (P09874 whole entry): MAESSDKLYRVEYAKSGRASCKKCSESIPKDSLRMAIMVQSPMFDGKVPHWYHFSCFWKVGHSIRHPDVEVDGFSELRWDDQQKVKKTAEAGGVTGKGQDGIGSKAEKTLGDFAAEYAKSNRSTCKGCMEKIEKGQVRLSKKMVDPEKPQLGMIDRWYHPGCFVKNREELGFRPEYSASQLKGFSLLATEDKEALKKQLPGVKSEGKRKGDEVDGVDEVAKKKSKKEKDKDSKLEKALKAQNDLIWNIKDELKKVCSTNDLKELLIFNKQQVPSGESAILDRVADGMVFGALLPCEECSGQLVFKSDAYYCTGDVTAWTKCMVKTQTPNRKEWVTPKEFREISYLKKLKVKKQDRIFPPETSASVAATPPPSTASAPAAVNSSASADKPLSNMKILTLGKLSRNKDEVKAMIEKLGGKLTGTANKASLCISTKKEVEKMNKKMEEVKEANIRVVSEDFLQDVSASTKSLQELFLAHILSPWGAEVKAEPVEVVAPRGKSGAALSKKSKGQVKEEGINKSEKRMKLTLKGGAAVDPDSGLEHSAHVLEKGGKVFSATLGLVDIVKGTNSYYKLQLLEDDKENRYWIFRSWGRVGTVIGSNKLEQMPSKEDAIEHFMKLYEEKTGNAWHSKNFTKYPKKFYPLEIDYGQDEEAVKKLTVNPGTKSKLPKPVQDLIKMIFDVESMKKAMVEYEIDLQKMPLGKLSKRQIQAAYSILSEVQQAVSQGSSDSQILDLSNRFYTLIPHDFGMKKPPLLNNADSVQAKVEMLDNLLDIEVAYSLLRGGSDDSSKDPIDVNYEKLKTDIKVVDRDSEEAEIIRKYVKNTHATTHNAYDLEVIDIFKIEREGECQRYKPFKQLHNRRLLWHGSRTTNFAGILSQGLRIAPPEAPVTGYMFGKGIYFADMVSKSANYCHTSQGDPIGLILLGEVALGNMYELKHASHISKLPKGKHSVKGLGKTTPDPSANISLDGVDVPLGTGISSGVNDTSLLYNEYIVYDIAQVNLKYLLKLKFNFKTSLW
Chain of Serine/threonine-protein kinase PLK1 (P53350 whole entry): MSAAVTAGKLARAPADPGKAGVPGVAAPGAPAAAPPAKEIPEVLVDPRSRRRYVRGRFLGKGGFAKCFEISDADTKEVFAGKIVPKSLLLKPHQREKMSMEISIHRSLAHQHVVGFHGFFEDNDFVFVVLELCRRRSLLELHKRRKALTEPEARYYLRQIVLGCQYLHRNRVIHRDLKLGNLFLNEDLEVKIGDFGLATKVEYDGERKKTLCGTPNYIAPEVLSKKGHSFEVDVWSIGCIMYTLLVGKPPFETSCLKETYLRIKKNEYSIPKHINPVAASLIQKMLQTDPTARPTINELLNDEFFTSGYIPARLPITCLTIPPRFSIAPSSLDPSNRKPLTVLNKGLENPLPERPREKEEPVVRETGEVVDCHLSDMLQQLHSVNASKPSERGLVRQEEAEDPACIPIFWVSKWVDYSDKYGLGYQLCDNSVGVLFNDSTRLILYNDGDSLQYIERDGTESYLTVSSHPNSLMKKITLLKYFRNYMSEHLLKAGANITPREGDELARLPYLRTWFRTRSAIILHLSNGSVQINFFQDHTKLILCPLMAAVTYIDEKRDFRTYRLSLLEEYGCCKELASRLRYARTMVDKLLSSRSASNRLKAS

As for `CC[C@@H]1C(=O)N(C)c2cnc(N(C)c3ccc(-c4nc5c(C(N)=O)cccc5[nH]4)cc3OC)nc2N1C1CCCC1`, the inhibition entry (in the data set with Mus musculus [1]; in the data set with Mus musculus [5]; in the data set with Mus musculus [6]; in data set [9]) was “Active” in each case. In addition, the half-maximal inhibitory concentration (IC50) with CFPAC-1 amounted to 1160 nM; in the data set with CAPAN-1, 1560 nM; in the data set on SW1990 [2] it was 980 nM; in data set [3], 101 nM; in [4], 2030 nM; in the data set with MDA-MB-231, 340 nM. For the same compound, the values for the IC50 in [7] and in data set [8] were 75 nM and 59400 nM, respectively. Moreover, the Activity entry in the data set on Mus musculus [10] was “Non-Toxic”; in the data set on SW1990 [13] it was 1.71%; with SW1990 [14], 2.81%; in the data set on SW1990 [15] it was 4.56%. For the same compound, the result with SW1990 [11], with Mus musculus [12], with Mus musculus [16], with SW1990 [17], in the data set with SW1990 [18] and in the data set with SW1990 [19] was Active.
As to `Cc1sc2c(c1C)C(c1ccc(Cl)cc1)=N[C@@H](CC(=O)OC(C)(C)C)c1nnc(C)n1-2`, the IC50 worked out at 1560 nM in the data set with CFPAC-1; 2440 nM with CAPAN-1; 3740 nM with SW1990 [2]; 640 nM in the data set on MDA-MB-231; 19400 nM in [8]. In addition, the Activity result with Mus musculus [20] was “Non-Toxic”; in the data set on Mus musculus [21], “Non-Toxic”; with Mus musculus [22], “Non-Toxic”; in the data set with Mus musculus [23], “Non-Toxic”; in the data set on SW1990 [24], 25.5%; in the data set on SW1990 [25], 19.43%. In addition, the outcome with SW1990 [26] and in the data set on SW1990 [27] was Active. Also, the inhibition entry in the data set on SW1990 [28], with SW1990 [29], with SW1990 [30] and with SW1990 [31] was “Active” in each case.

The record behind these values is ChEMBL document CHEMBL5053549, “Discovery of Potent and Novel Dual PARP/BRD4 Inhibitors for Efficient Treatment of Pancreatic Cancer” (J Med Chem, 2021).
